Where two headings read alike, the source gives them in different places.
Tests used:
Parameters in all cases: species or system guinea pig
[1] = biological target: T1, sigma-2 binding site (Cavia porcellus, UniProt H0V073); assay: biochemical
T1 construct: Guinea pig whole membrane preparations (P2 microsomal fraction); from tissue; host or cells: guinea pig membranes (P2 microsomal fraction), as described by Weber et al; brain inferred from the sister test b489
T1 sequence (H0V073 1-176): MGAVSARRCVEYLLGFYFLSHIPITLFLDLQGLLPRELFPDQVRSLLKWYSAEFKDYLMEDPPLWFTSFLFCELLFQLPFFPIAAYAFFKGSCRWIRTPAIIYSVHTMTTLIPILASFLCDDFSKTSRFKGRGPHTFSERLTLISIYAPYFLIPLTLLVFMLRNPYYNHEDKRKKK
Method: For the standard equilibrium assay, the mixtures were incubated for 30 min. at room temperature, then filtered and the radioactivity determined as described above.

[2] = biological target: sigma receptor; assay: Sigma receptor binding, [^3 H]DTG, brain membranes (both sigma-1 and sigma-2 sites)
Method: Sigma receptor binding assays using guinea pig brain membrane homogenates and the radioligand [^3 H]DTG were conducted as described by Weber et al.. […] Briefly, frozen whole guinea-pig brains (Biotrol, Indianapolis, Ind.) were homogenized in 10 volumes (w/v) of ice-cold 320 mM sucrose using a Brinkman polytron. The homogenate was centrifuged at 1,000× g for 20 minutes at 4° C. The supernatant was centrifuged at 20,000× g for 20 minutes at 4° C. The resulting pellet was resuspended in 10 initial volumes of 50 mM Tris/HCl buffer at pH 7.4 and centrifuged at 20,000× g for 20 minutes at 4° C. The resulting pellet was resuspended in 5 initial volumes ice-cold 50 mM Tris/Hcl […], and the final volume was adjusted to yield a protein concentration of 3 mg/ml. Aliquots of 20-ml were stored at -70° C. until used, with no detectable loss of binding.
The protein concentration in the 1-ml final incubation volume was 800 ug/ml, corresponding to 32 mg of brain tissue (original wet weight) and to a tissue concentration within the linear range for specific binding. […] Incubations were terminated after 90 minutes at room temperature by addition of 4 ml of ice-cold 50 mM Tris/HCl (pH 7.4) and rapid filtration of the membrane suspension through Whatman GF/B glass-fiber filters under vacuum, using a 48-well cell harvester (Brandel). The filters were washed 2 times with 4 ml of 50 mM Tris/HCl (pH 7.4). Each filter was suspended in 10 ml Cytoscint (ICI), and radioactivity was measured by liquid scintillation spectrometry at a counting efficiency of approximately 50%. IC50 values were determined by non-linear regression analyis.
Further sigma receptor binding assays against [^3 H]DTG and 5HT-1A binding assays were conducted according to the procedure outlined in the previous examples.
Radioligand Binding. […] Briefly, membranes (P2 microsomal fraction) were diluted 1:3 with 50 mM Tris HCl (pH 7.4) and 0.4 mL was combined with 50 μL [^3 H]DTG (1-2 nM final concentration) and 50 μL of competing drug or buffer. After 90 min at room temperature, incubation was terminated by rapid filtration under vacuum through Whatman GF/B glass fiber filters using a Brandel 48-well cell harvester. Filters were washed three times with 5 mL of cold Tris HCl buffer and each filter was suspended in 5 mL of Cytoscint (ICN Biomedical). Radioactivity was measured by liquid scintillation spectrometry at a counting efficiency of 50%.

[3] = biological target: T2, sigma-1 binding site (Cavia porcellus, UniProt Q60492); assay: biochemical; conditions: for sigma-2/sigma-1 selectivity: Example 8
T2 construct: Guinea pig whole membrane preparations (P2 microsomal fraction); from tissue; host or cells: guinea pig membranes (P2 microsomal fraction), as described by Weber et al; brain inferred from the sister test b489
T2 sequence (Q60492 whole entry): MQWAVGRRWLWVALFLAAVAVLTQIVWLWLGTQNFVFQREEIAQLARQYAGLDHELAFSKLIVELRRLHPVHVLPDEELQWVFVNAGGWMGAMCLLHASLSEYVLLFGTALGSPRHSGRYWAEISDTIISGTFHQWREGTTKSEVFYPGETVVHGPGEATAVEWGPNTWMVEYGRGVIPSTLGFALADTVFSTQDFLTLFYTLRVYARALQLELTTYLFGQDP
Method: [^3 H]DTG was purchased from DuPont/NEN.
The radioactivity on the filters was determined by scintillation spectrometry at an efficiency of about 50% using Cytoscint (ICN) scintillation fluid.

[4] = Table 10, read-out: SIGMA-2 KI vs. 3H-DTG + PENTAZOCINE MEAN
[5] = running text, Examples 5 and 6, read-out: sigma receptor Ki
[6] = Table 10, read-out: SIGMA-1 KI vs. 3H-PENTAZOCINE MEAN
[7] = less than about 0.1, see Table 10
[8] = Table 16, read-out: Sigma-1 IC50

| Structure (SMILES) | Ki [1, 4] [nM] | IC50 ([2]; Table 6, [^3 H]DTG) [nM] | Ki [2, 5] [nM] | Ki [3, 6] [nM] | S1/S2 Ratio ([3]; Table 10, sigma-1/sigma-2) | IC50 ratio of sigma-1/sigma-2 (sigma-1 selective compounds) [3, 7] | other results |
| --- | --- | --- | --- | --- | --- | --- | --- |
| CN1CCN(CC/C=C\c2ccccc2)CC1 [Compound 104, N-(4-phenyl-3(Z)-butenyl)-N'-methylpiperazine] | 1310 | 76.2 | – | – | – | – | IC50 ratio of sigma-1/sigma-2 (sigma-1 selective compounds) [3]: less than 0.1; Ki ([3]; SIGMA-1 KI vs. 3H-P[…]): 28.7 nM; S1/S2 Ratio ([3]; guinea pig, microsomes): 0.022 |
| c1ccc(CCCNCCc2ccccc2)cc1 [Compound 87, N-(3-phenylpropyl)phenethylamine] | 90.1 | 21.8 | 19 | 11.3 | – | – | IC50 ([1]; Example 9, read-out: sigma-2 IC50): 90 nM; Ki ([2]; Table 7, Phenyl-(CH2)x -NH--(CH2)y -Phenyl, read-out: Ki): 19 nM; IC50 ([3]; Table 14, read-out: IC50 (nM) at sigma-1): 11.3 nM |
| C[C@@H](Cc1ccccc1)N(CCCc1ccccc1)Cc1ccccc1 [Compound 134, N-Benzyl-N-(3-phenylpropyl)-1-phenyl-2-propylamine] | – | – | – | – | – | – | Ki ([1]; SIGMA-2 KI vs. 3H-DTG + P[…]): 471 nM; IC50 [2]: 199 nM; Ki ([3]; SIGMA-1 KI vs. 3H-P[…]): 128 nM; S1/S2 Ratio ([3]; guinea pig, microsomes): 0.272 |
| CN1CCN(CC/C=C/c2ccccc2)CC1 [Compound 103, N-(4-phenyl-3(E)-butenyl)-N'-methylpiperazine] | 2540 | 75.2 | – | – | – | – | IC50 ratio of sigma-1/sigma-2 (sigma-1 selective compounds) [3]: less than 0.1; Ki ([3]; SIGMA-1 KI vs. 3H-P[…]): 28.7 nM; S1/S2 Ratio ([3]; guinea pig, microsomes): 0.011 |
| CN1CCN(CCCCc2ccccc2)CC1 [Compound 106, N-(4-phenyl)-N'-methylpiperazine] | 899 | 49.8 | – | 19.3 | 0.022 | less than 0.1 | – |
| CN(C)CCCCCc1ccccc1 [Compound 125, N,N-Dimethyl-5-phenylpentylamine] | 965 | 38.8 | 35 | 10.4 | 0.011 | less than 0.1 | sigma-2/sigma-1 selectivity [3]: 96 |
| NCCCCCC1CCCCC1.O=C(O)C(=O)O [Compound 126, 5-Cyclohexylpentylamine Hydrogen Oxalate] | 2550 | 219 | 200 | 191 | 0.075 | less than 0.1 | sigma-2/sigma-1 selectivity [3]: 13; IC50 [3, 8]: 190 nM |
| CNCCCCCC1CCCCC1 [Compound 127, N-methyl-5-cyclohexylpentylamine] | 346 | 10.6 | 10 | 6.78 | 0.020 | less than 0.1 | sigma-2/sigma-1 selectivity [3]: 51; IC50 [3, 8]: 6.8 nM |
| c1ccc(CCCCCN2CCN(Cc3ccccc3)CC2)cc1 [Compound 129, N-Benzyl-N'-(5-phenylpentyl)-piperazine] | 11.3 | 2.29 | – | 0.41 | .036 | – | – |
| c1ccc(CCCN2CCCCC2)cc1 [Compound 140, N-(3-phenylpropyl)piperidine] | 147 | 69 | – | 48.9 | – | – | – |
| CCC(Cc1ccccc1)NCCCCc1ccccc1 (stereo not shown) [Compound 101, N-(4-phenylbutyl)-1-phenyl-2-butylamine] | 104 | 15.7 | – | 2.7 | 0.026 | less than 0.1 | – |
